Assay results reported in publication PMC2921628 (Biochemistry, 2010).
Where two headings read alike, the source gives them in different places. Each block holds one compound with its values, some of them ahead of it.

Assays:
[1] = biological target: T1, cdk5/p25 (Homo sapiens, UniProt Q00535); assay: Inhibition studies with substrate analogues and product ADP at 0.2 mM MgCl2; format: biochemical; details: 0.2 mM Mg^2+
[2] = biological target: T1, cdk5/p25; assay: Influence of D2O on inhibitor; format: biochemical; details: 10 µM ATP, saturating H1P; data not shown
[3] = cited from earlier work
[4] = biological target: T1, cdk5/p25; assay: Initial velocity kinetic analysis of cdk5/p25-catalyzed H1P phosphorylation; format: biochemical
[5] = versus variable substrate ATP (H1P fixed)
[6] = versus variable substrate H1P (ATP fixed)

T1 sequence (Q00535 whole entry, species assumed): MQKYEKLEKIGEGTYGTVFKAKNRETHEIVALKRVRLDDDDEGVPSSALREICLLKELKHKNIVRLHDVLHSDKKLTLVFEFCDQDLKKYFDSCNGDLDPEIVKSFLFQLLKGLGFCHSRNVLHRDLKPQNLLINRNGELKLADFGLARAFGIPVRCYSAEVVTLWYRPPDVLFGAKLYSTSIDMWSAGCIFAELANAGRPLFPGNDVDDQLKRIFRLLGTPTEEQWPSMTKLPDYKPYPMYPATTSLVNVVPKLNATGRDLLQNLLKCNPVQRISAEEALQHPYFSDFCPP
T1 sequence (Q15078 99-307 partner limits assumed, species assumed): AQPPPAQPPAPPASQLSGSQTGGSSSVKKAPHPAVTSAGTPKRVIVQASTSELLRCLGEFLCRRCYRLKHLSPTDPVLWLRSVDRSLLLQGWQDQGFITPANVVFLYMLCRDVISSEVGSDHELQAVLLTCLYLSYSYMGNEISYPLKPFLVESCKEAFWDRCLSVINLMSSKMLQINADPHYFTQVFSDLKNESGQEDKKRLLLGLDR

mechanism of inhibition [1, 5]: competitive
mechanism of inhibition [1, 6]: noncompetitive
SMILES: Nc1ncnc2c1ncn2[C@@H]1O[C@H](COP(=O)(O)OP(=O)(O)O)[C@@H](O)[C@H]1O [ADP]

enzyme forms that inhibitor binds [1]: binds to both E and E:B complex
mechanism of inhibition [1, 5]: competitive
mechanism of inhibition [1, 6]: noncompetitive
dissociation constant from E:H1P:AMP, lowering in 85% D2O compared with water [2]: approximately 1.5 fold
SMILES: Nc1ncnc2c1ncn2[C@@H]1O[C@H](COP(=O)(O)O)[C@@H](O)[C@H]1O [AMP]

Kd ([4]; KATP (KMgATP), 2.5 mM free Mg^2+): 6.1 ± 1.5 µM
SMILES: Nc1ncnc2c1ncn2[C@@H]1O[C@H](COP(=O)(O)OP(=O)(O)OP(=O)(O)O)[C@@H](O)[C@H]1O [ATP, Adenosine 5’-triphosphate]
pKa for protonation of the γ-phosphate of ATP [3]: 4.6

hill coefficient ([4]; MgATP dependence of (kcat)H1P at 0.2 mM free Mg^2+ (Figure 1B)): 1.8 ± 0.1
Kd ([4]; read-out: KATP (KMgATP), 0.2 mM free Mg^2+): 60 ± 20 µM
Kd ([4]; read-out: KATP (KMgATP), 2.5 mM free Mg^2+): 6.1 ± 1.5 µM
SMILES: Nc1ncnc2c1ncn2[C@@H]1O[C@H](COP(=O)(O)OP(=O)([O-])OP(=O)([O-])O)[C@@H](O)[C@H]1O.[Mg+2] [MgATP]
dissociation constant of MgATP ([3]; used to calculate MgATP and free Mg^2+ concentrations): 14.3 µM
